Assays:
Assay in all cases: drug sensitivity score (DSS) from 5-dose viability curve (DSS (area-based score, 0 = no response)); higher = more sensitive (stronger viability inhibition); extreme values may be limits of the assay
[1] = system: MDCK wild-type - doxycycline; conditions: doxycycline: none; 72 h
In short: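 For 72 h at 37 °C, parental MDCK cells (no doxycycline, 2000 cells/well) were incubated on 384-well plates pre-spotted with 528 oncology drugs at five doses from 1 to 10,000 nM. CellTiter-Glo luminescence served as the viability readout, scaled per plate between vehicle and positive controls. The Breeze pipeline then fitted dose-response curves to yield drug sensitivity scores.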

[2] = system: MDCK p60AmotL2-inducible + doxycycline (p60AmotL2 expressing); conditions: doxycycline: 10 ng/mL; 72 h
In short: (§1)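 After 72 h at 37 °C on 384-well plates pre-spotted with 528 oncology drugs at five doses (1-10,000 nM), parental and doxycycline-inducible MDCK cells were assessed; both lines had been given 10 ng/mL doxycycline in the medium before seeding at 2000 cells/well. Viability was taken from CellTiter-Glo luminescence scaled per plate to vehicle and positive controls, and drug sensitivity scores were derived from dose-response fits in the Breeze pipeline.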

[3] = system: MDCK wild-type + doxycycline; conditions: doxycycline: 10 ng/mL; 72 h
In short: as §1

Structure (SMILES) | drug sensitivity score [1] | drug sensitivity score [2] | drug sensitivity score [3]
Nc1cccc2c1C(=O)N(C1CCC(=O)NC1=O)C2=O (centres undefined) [Pomalidomide] | 0 | 0 | 0
Cc1c(-c2c(-c3ccc(F)o3)sc3ncnc(O[C@H](Cc4ccccc4OCc4ccnn4CC(F)(F)F)C(=O)O)c23)ccc(OCCN2CCN(C)CC2)c1Cl | 0 | 0 | 0
Cc1nc(Nc2ncc(C(=O)Nc3c(C)cccc3Cl)s2)cc(N2CCN(CCO)CC2)n1 [Dasatinib] | 4.9 | 13.7 | 1.8
CC(C)[C@H]1C(=O)N[C@@H](CCCNC(=N)N)C(=O)NCC(=O)N[C@@H](CC(=O)O)C(=O)N[C@H](Cc2ccccc2)C(=O)N1C [Cilengitide] | 0.2 | 3.8 | 0
CNC(=O)c1cccc(-c2ccc3c(N4CCOC[C@@H]4C)nc(N4CCOC[C@@H]4C)nc3n2)c1 [Vistusertib] | 7.5 | 15.5 | 10.5
Cn1cnc2c(F)c(Nc3ccc(Br)cc3Cl)c(C(=O)NOCCO)cc21 [Selumetinib] | 0.9 | 10.1 | 4.1
FC(F)(F)c1ccc(/C=C/c2nc(COc3ccc(CCCCn4ccnn4)cc3)co2)cc1 [Mubritinib] | 0 | 0 | 0
CC(=O)O[C@]1(C(C)=O)CC[C@H]2[C@@H]3C=C(C)C4=CC(=O)CC[C@]4(C)[C@H]3CC[C@@]21C [Megestrol acetate] | 0 | 0 | 0
Nc1nc(N)c2nc(-c3cccc(O)c3)c(-c3cccc(O)c3)nc2n1 [TG100-115] | 0 | 0 | 0
Cc1c(-c2ccc(N3CCc4cccc(C(=O)Nc5nc6ccccc6s5)c4C3)nc2C(=O)O)cnn1CC12CC3CC(CC(C3)C1)C2 | 0 | 0 | 0
Nc1cc(F)ccc1NC(=O)/C=C/c1cnn(C/C=C/c2ccccc2)c1 [RGFP966] | 0 | 1 | 0
C[C@@H](Nc1cc(F)cc(F)c1)c1cc(C(=O)N(C)C)cc2c(=O)cc(N3CCOCC3)oc12 [AZD-8186] | 0 | 1.4 | 0
COc1cc(Nc2c(C#N)cnc3cc(OCCCN4CCN(C)CC4)c(OC)cc23)c(Cl)cc1Cl [Bosutinib] | 7.5 | 14.1 | 10.4
CS(=O)(=O)CCNCc1ccc(-c2ccc3ncnc(Nc4ccc(OCc5cccc(F)c5)c(Cl)c4)c3c2)o1 [Lapatinib] | 0.9 | 6.8 | 0
Cn1nnc2c(C(N)=O)ncn2c1=O [Temozolomide] | 0 | 0 | 0
Cc1c(N)nc([C@H](CC(N)=O)NC[C@H](N)C(N)=O)nc1C(=O)N[C@H](C(=O)N[C@H](C)[C@@H](O)[C@H](C)C(=O)N[C@H](C(=O)NCCc1nc(-c2nc(C(=O)NCCC[S+](C)C)cs2)cs1)[C@@H](C)O)[C@@H](OC1OC(CO)C(O)C(O)C1OC1OC(CO)C(O)C(OC(N)=O)C1O)c1cnc[nH]1 (some centres undefined) [Bleomycin] | 0 | 0.6 | 0
CN1CCN(C2CCN(C(=O)Nc3cc(Oc4ccc(NC(=O)C5(C(=O)Nc6ccc(F)cc6)CC5)c(F)c4)ccn3)CC2)CC1 [Golvatinib] | 0 | 1 | 0
Cc1cc([C@@H](C)Nc2ccccc2C(=O)O)c2nc(N3CCOCC3)cc(=O)n2c1 [AZD-6482] | 0 | 0 | 0
NC(=O)c1cccc2cn(-c3ccc([C@@H]4CCCNC4)cc3)nc12 [Niraparib] | 0.7 | 2.1 | 2.3
NC1(c2ccc(-c3nc4ccn5c(=O)[nH]nc5c4cc3-c3ccccc3)cc2)CCC1 [MK-2206] | 0 | 0 | 0
Cc1cnc(-c2ccccc2C(C)C)nc1NCc1ccc(-n2ccnn2)cc1 [ML323] | 0 | 1.4 | 0
NS(=O)(=O)OC[C@@H]1C[C@@H](n2ccc3c(N[C@H]4CCc5ccccc54)ncnc32)C[C@@H]1O [Pevonedistat] | 9 | 11.7 | 9.7

Structure (SMILES) | drug sensitivity score [1] | drug sensitivity score [2] | drug sensitivity score [3]
Nc1nc2[nH]cc(CCc3ccc(C(=O)N[C@@H](CCC(=O)O)C(=O)O)cc3)c2c(=O)[nH]1 [Pemetrexed] | 5.5 | 7.1 | 5.3
CNC(=O)CN1CCC(Oc2cc3c(Nc4cccc(Cl)c4F)ncnc3cc2OC)CC1 [Sapitinib] | 1.2 | 12.9 | 4.5
CC1(COc2ccc3c(c2)ncn3-c2ccc3cccc(N4CCC(N)CC4)c3n2)COC1 [Crenolanib] | 5.4 | 6.5 | 8.1
CC[C@@]1(O)C(=O)OCc2c1cc1n(c2=O)Cc2cc3c(CN(C)C)c(O)ccc3nc2-1 [Topotecan] | 8.1 | 11.5 | 10.1
C1=N/C2=N/c3ccc(OCCN4CCCC4)c(c3)COC/C=C/COCc3cccc(c3)C(=C1)N2 [Pacritinib] | 10.1 | 10 | 9.3
Cc1c(C(=O)Nc2ccc(N3C[C@@H](C)O[C@@H](C)C3)nc2)cccc1-c1ccc(OC(F)(F)F)cc1 [Sonidegib] | 0.6 | 0 | 0
O=C(O)c1ccc(-c2c[nH]c3ncc(-c4ccccc4)cc23)cc1C1CCCC1 | 0 | 0.8 | 1
COc1cc2nccc(Oc3ccc(NC(=O)NC4CC4)c(Cl)c3)c2cc1C(N)=O [Lenvatinib] | 0 | 0 | 0
Cn1cc(-c2cnn3c(N)c(Br)c([C@@H]4CCCNC4)nc23)cn1 [MK-8776] | 0 | 0 | 0
C#Cc1cccc(Nc2ncnc3cc(OCCOC)c(OCCOC)cc23)c1 [Erlotinib] | 3.4 | 15.4 | 4.5
COc1cccc(OCCCN)c1-c1cc(Nc2cnc(C#N)cn2)n[nH]1 [Prexasertib] | 0.8 | 3.5 | 2.2
Cc1[nH]nc(C(F)(F)F)c1Cc1sc2c(c1C(=O)N1C[C@](C)(O)CO1)c(=O)n(C)c(=O)n2C(C)C [AZD3965] | 0 | 4.5 | 0
CN(C)c1cc2c(cc1Sc1nc3c(N)nccc3n1CCNCC(C)(C)C)OCO2 [CUDC-305] | 17.7 | 18 | 17
C[C@H]1C[C@@H](n2c(Nc3ccc(OC(F)(F)F)cc3)nc3cc(CCC(=O)O)ccc32)CC(C)(C)C1 | 0 | 0 | 0
Nc1nc(F)nc2c1ncn2[C@@H]1O[C@H](CO)[C@@H](O)[C@@H]1O [Fludarabine] | 0 | 0 | 0
N#CC[C@H](C1CCCC1)n1cc(-c2ncnc3[nH]ccc23)cn1 [Ruxolitinib] | 0 | 0 | 0
COc1cccc2c1C(=O)c1c(O)c3c(c(O)c1C2=O)C[C@@](O)(C(=O)CO)C[C@@H]3O[C@H]1C[C@H](N)[C@H](O)[C@H](C)O1 [Doxorubicin] | 3.7 | 9.8 | 8.3
O=C(/C=C/c1cccc(S(=O)(=O)Nc2ccccc2)c1)NO [Belinostat] | 14 | 19 | 15.8
CNC(=O)c1cccc2cc(Oc3ccnc4cc(OCC5(N)CC5)c(OC)cc34)ccc12 [Lucitanib] | 0 | 2.6 | 0.7
COc1cc([C@@H]2c3cc4c(cc3[C@@H](O[C@@H]3O[C@@H]5CO[C@@H](c6cccs6)O[C@H]5[C@H](O)[C@H]3O)[C@H]3COC(=O)[C@H]23)OCO4)cc(OC)c1O [Teniposide] | 0.9 | 2.7 | 1.5
Cc1ccc(C(=O)Nc2ccc(Oc3cc4cnn(C)c4cc3-c3cn[nH]c3)c(F)c2)c(=O)n1-c1ccc(F)cc1 [Merestinib] | 0.9 | 0 | 0

From the supplement of paper PMC11003180
